Test results reported in US9493540B2, “Ecdysone receptor/invertebrate retinoid X receptor-based inducible gene expression system” (Intrexon Corporation, priority 2001, dated 2016).

Legend:
Type in all cases: cell-based, Choristoneura fumiferana
[1] = tested on: GAL4:CfEcR-DEF/VP16:LmUSP-EF; assay: Luciferase reporter gene induction in stably transfected CHO cells (pFRLuc); settings: stable clone 1A2, CHO cells, 0, 1, 5, or 25 μM ligand, 48 hours, maximum fold induction
Source text: This Example describes the construction of host cells comprising the EcR/invertebrate RXR-based gene expression modulation system according to the invention. To make stable cells expressing GAL4:CfEcR-DEF/VP16:LmUSP-EF (switch 1.18, prepared as described in Example 1), Applicants transfected the gene expression cassettes encoding the hybrid GAL4:CfEcR-DEF and VP16:LmUSP-EF polypeptides into Chinese hamster ovary CHO cells comprising a stably transfected reporter plasmid pFRLuc. […] The cells were harvested and reporter activity was assayed.
The transfected CHO cells were grown in the presence of 0, 1, 5, or 25 μM PonA steroid ligand or GS™-E non-steroid ligand for 48 hours. The cells were harvested, lysed and the reporter activity was measured. Total fly luciferase relative light units (RLU) are presented. The numbers on the top of the bars correspond to the maximum fold induction for each treatment. Bulk populations of cells were selected for resistance to the antibiotic neomycin (VP16:LmUSP/VP16:RXR constructs have the neomycin resistance gene incorporated). Several clones from each population were isolated by end point dilution. Three clones of stably transfected GAL4:CfEcR-DEF/VP16:LmUSP-EF cells were analyzed (see FIG. 10, clone 1A2; the data related to the two other clones are not shown).

[2] = tested on: GAL4CfEcR-DEF/VP16LmUSP-EF (switch 1.18); assay: Effect of a second ligand on transactivation of the gene switch with pFRLuc in NIH3T3 cells; settings: non-steroid ligand 1 μM or less, absence of 9-Cis-retinoic acid, 48 hours
Description: (§1) Transfections: DNAs corresponding to the various switch constructs outlined in Example 1, specifically switches 1.1 through 1.8, were transfected into mouse NIH3T3 cells (ATCC) as follows. […] For 12-well plates, 4 μl of Superfect™ was mixed with 100 μl of growth medium. […] The cells were harvested and reporter activity was assayed. […] Ligands: The steroidal ligand Ponasterone A (PonA) was purchased from Sigma Chemical Company. […] Reporter Assays: Cells were harvested 48 hours after adding ligands. […] Twenty μl of lysate were assayed. […] In addition, LmUSP worked better than vertebrate RXR as a CfEcR partner. In particular, both the sensitivity, i.e. the concentration of ligand required for transactivation, and the magnitude of transactivation were increased with LmUSP compared to vertebrate RXR. […]
In particular, Applicants have determined the effect of 9-cis-retinoic acid on the transactivation potential of the GAL4CfEcR-DEF/VP16LmUSP-EF (switch 1.18) gene switch along with pFRLuc in NIH3T3 cells in the presence of non-steroid (GSE) for 48 hours.
Briefly, GAL4CfEcR-DEF, pFRLuc and VP16LmUSP-EF were transfected into NIH3T3 cells and the transfected cells were treated with 0, 0.04, 0.2, 1, 5 and 25 μM non-steroidal ligand (GSE) and 0, 1, 5 and 25 μM 9-Cis-retinoic acid (Sigma Chemical Company). The reporter activity was measured at 48 hours after adding ligands.

CfEcR/LmUSP-based switch = assay: Luciferase reporter induction by two-hybrid switches transfected into NIH3T3 cells; settings: non-steroid compared with steroid PonA, 0, 1, 5 or 25 μM, 48 hours
Description: as §1
Briefly, full-length EcR and truncated EcRs, created by a truncation mutation at the junctions of A/B, C, D, E and F domains and fused to a GAL4 DNA binding domain encoding polynucleotide (SEQ ID NO: 33) as described in Example 1 above. […] The cells were harvested, lysed and luciferase reporter activity was measured in the cell lysates. […] The analysis was performed in triplicate and mean luciferase counts [total relative light units (RLU)] were determined as described above.

Structure (SMILES)	fold induction [1] [fold]	induction of reporter activity [2]	sensitivity of the switch to ligand (CfEcR/LmUSP-based switch)
CC(C)CC[C@@H](O)[C@](C)(O)[C@H]1CC[C@@]2(O)C3=CC(=O)[C@@H]4C[C@@H](O)[C@@H](O)C[C@]4(C)[C@H]3CC[C@]12C [PonA, Ponasterone A]	42		
CCc1c(OC)cccc1C(=O)NN(C(=O)c1cc(C)cc(C)c1)C(C)(C)C [non-steroidal ligand, N-(2-ethyl-3-methoxybenzoyl)-N′-(3,5-dimethylbenzoyl)-N′-t-butylhydrazine]	162	very little induction	more sensitive
